US20230416330A1, “Optimized GIP Peptide Analogues” (Antag Therapeutics ApS, priority 2019, published 2023)
Non-standard residues stand in square brackets, D forms with d. Residues, ends and D or L forms follow the SMILES beside them. *: point of attachment. C16 diacid = O=C(O)CCCCCCCCCCCCCCC(=O)*; Nle = CCCC[C@H](N)C(=O)O; Aib = CC(C)(N)C(=O)O

Key:
[1] = Solubility by visual inspection of peptide solutions; type: physicochemical; conditions: 1 mg/ml, TFA, Phosphate (7.4)
Outline: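 Solubility scored by eye: clear, colorless appearance after gentle mixing. Samples prepared at 1, 5, 7.5 or 15 mg/ml in either pH 7.4 water (NaOH-adjusted) or 50 mM sodium phosphate buffer, pH 7.4.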

[2] = Physical stability: fibril formation in Thioflavin T (ThT) assay with agitation; type: physicochemical; conditions: 1 mg/ml, TFA, Phosphate (7.4); 25° C., agitation
Outline: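 Read-out is continuous ThT fluorescence at 486 nm, with lag time taken where signal reaches 10% between pre- and post-transition baselines. Filtered samples (1, 5, 7.5 or 15 mg/ml; pH 7.4 phosphate buffer or NaOH-adjusted water) were stressed at 25° C. by orbital rotation at 300 rpm with one silica bead per well.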

[3] = target: T1, human GIP receptor (Homo sapiens, UniProt P48546); test: cAMP assay Alternative 1 (CisBio assay), GIPR antagonism; type: cell-based; conditions: Table 2B; for cAMP antagonism % inhib: % inhibition of Emax
T1 construct: host or cells: HEK-293 cells, transient transfection (Lipofectamine 2000), cDNA in pCMV-Script vector
T1 sequence (P48546 22-466): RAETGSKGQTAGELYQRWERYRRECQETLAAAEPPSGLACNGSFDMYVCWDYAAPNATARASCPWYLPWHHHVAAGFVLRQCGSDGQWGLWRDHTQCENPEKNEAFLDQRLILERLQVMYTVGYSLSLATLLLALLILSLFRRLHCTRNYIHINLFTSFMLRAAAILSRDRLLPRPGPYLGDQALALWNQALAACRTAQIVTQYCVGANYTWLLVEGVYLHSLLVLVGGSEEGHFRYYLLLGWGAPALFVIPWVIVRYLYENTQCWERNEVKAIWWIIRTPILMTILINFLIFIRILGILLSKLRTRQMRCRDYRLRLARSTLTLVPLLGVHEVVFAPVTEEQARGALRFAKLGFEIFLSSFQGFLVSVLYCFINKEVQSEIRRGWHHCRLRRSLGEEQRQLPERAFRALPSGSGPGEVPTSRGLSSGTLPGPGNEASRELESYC
Outline: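 HEK293 cells transiently transfected with hGIPR, compounds diluted in HBSS/HEPES/pluronic/casein with 500 uM IBMX; decrease in intracellular cAMP read by HTRF (665/620 nm) and converted via cAMP standard curve. pIC50 from four-parameter fit; agonism tested separately after 30 min at 37° C.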

For `CCCC[C@H](NC(=O)C(C)(C)NC(=O)[C@@H](NC(=O)[C@H](CO)NC(=O)[C@H](Cc1ccc(O)cc1)NC(=O)[C@H](CCC(=O)O)NC(=O)[C@H](CO)NC(=O)[C@@H](NC(=O)[C@H](Cc1ccccc1)NC(=O)[C@@H](NC(=O)CNC(=O)[C@@H](N)CCC(=O)O)[C@@H](C)O)[C@@H](C)CC)[C@@H](C)CC)C(=O)N[C@@H](CCC(=O)O)C(=O)N[C@@H](CCCCN)C(=O)N[C@H](C(=O)N[C@@H](CCCCNC(=O)CCCCCCCCCCCCCCC(=O)O)C(=O)N[C@@H](CCC(N)=O)C(=O)N[C@@H](CCC(N)=O)C(=O)N[C@@H](CCC(=O)O)C(=O)N[C@@H](Cc1ccccc1)C(=O)N[C@H](C(=O)N[C@@H](CCC(=O)O)C(=O)N[C@@H](Cc1c[nH]c2ccccc12)C(=O)N[C@@H](CC(C)C)C(=O)N[C@@H](CC(C)C)C(=O)N[C@@H](C)C(=O)N[C@@H](CCC(N)=O)C(=O)N[C@@H](CCCCN)C(=O)N1CCC[C@H]1C(=O)N[C@@H](CO)C(=O)N[C@@H](CO)C(=O)NCC(=O)N[C@@H](C)C(=O)N1CCC[C@H]1C(=O)N1CCC[C@H]1C(=O)N1CCC[C@H]1C(=O)N[C@@H](CO)C(=O)O)C(C)C)[C@@H](C)CC` [AT674] (H-EGTFISEYSI[Aib][Nle]EKIK(C16 diacid)QQEFVEWLLAQKPSSGAPPPS-OH; N-terminus assumed), the Visual appearance [1] was “Clear”, the “Avr lag time (h)” value [2] was “fnd (Fnd = fibrils not detected within experiment time (96 hours) with agitation.)” and the “cAMP antagonism % inhib” value [3] was 93%. It also gave an IC50 ([3]; HEK-293 cells transiently expressing hGIPR, agonist GIP1-42 at EC50, read-out: cAMP antagonism) of 0.447 nM.

For `CC[C@H](C)[C@H](NC(=O)[C@H](CCCCN)NC(=O)[C@H](CC(=O)O)NC(=O)[C@H](CC(C)C)NC(=O)C(C)(C)NC(=O)[C@@H](NC(=O)[C@H](CO)NC(=O)[C@H](Cc1ccc(O)cc1)NC(=O)[C@H](CC(=O)O)NC(=O)[C@H](CO)NC(=O)[C@@H](NC(=O)[C@H](Cc1ccccc1)NC(=O)[C@@H](NC(=O)CNC(=O)[C@@H](N)CCC(=O)O)[C@@H](C)O)[C@@H](C)CC)[C@@H](C)CC)C(=O)N[C@@H](CCCCNC(=O)CCCCCCCCCCCCCCC(=O)O)C(=O)N[C@@H](CCC(N)=O)C(=O)N[C@@H](CCC(N)=O)C(=O)N[C@@H](CC(=O)O)C(=O)N[C@@H](Cc1ccccc1)C(=O)N[C@H](C(=O)N[C@@H](CCC(=O)O)C(=O)N[C@@H](Cc1c[nH]c2ccccc12)C(=O)N[C@@H](CC(C)C)C(=O)N[C@@H](CC(C)C)C(=O)N[C@@H](C)C(=O)N[C@@H](CCC(N)=O)C(=O)N[C@@H](CCCCN)C(=O)N1CCC[C@H]1C(=O)N[C@@H](CO)C(=O)N[C@@H](CO)C(=O)NCC(=O)N[C@@H](C)C(=O)N1CCC[C@H]1C(=O)N1CCC[C@H]1C(=O)N1CCC[C@H]1C(=O)N[C@@H](CO)C(=O)O)C(C)C` [AT666] (H-EGTFISDYSI[Aib]LDKIK(C16 diacid)QQDFVEWLLAQKPSSGAPPPS-OH; N-terminus assumed), the Visual appearance [1] was “Clear”, the “Avr lag time (h)” value [2] was “fnd (Fnd = fibrils not detected within experiment time (96 hours) with agitation.)” and the “cAMP antagonism % inhib” value [3] was 89%.
